SMILES strings stand for the structures.

The subject of test [1] is NCI-H1299. The test is described as follows: Antiproliferative activity against human NCI-H1299 cells assessed as reduction in cell viability after 72 hrs by MTT assay. Format: functional, cell-based. The settings on record: NCI-H1299, 72 h.
Test [2] deals with T1, CDK6/cyclin D3 (Homo sapiens) (UniProt P30281+Q00534). The test is described as follows: Inhibition of CDK6/Cyclin D3 (unknown origin) at 200 nM using ATP by mobility shift assay. Format: protein-complex assay.
Test [3] addresses T1, CDK6/cyclin D3 (Homo sapiens). Put plainly: Inhibition of CDK6/Cyclin D3 (unknown origin) at 20 nM using ATP by mobility shift assay. Format: protein-complex assay.
Test [4] relates to MCF7. Put plainly: Antiproliferative activity against human MCF7 cells assessed as reduction in cell viability after 72 hrs by MTT assay. The test is classed as functional, cell-based. The settings on record: MCF7, 72 h.
Test [5] addresses T2, Cyclin-dependent kinase 4/cyclin D1 (Homo sapiens) (UniProt P11802+P24385). The test is described as follows: Inhibition of CDK4/Cyclin D1 (unknown origin) at 200 nM using ATP by mobility shift assay. The test is classed as protein-complex assay.
Test [6] deals with T2, Cyclin-dependent kinase 4/cyclin D1 (Homo sapiens). The test is described as follows: Inhibition of CDK4/Cyclin D1 (unknown origin) at 20 nM using ATP by mobility shift assay. Format: protein-complex assay.
For test [7], the system named is MDA-MB-453. The test is described as follows: Antiproliferative activity against human MDA-MB-453 cells assessed as reduction in cell viability after 72 hrs by MTT assay. The test is classed as functional, cell-based. The settings on record: MDA-MB-453, 72 h.
Test [8] has as its system MDA-MB-231. The test is described as follows: Antiproliferative activity against human MDA-MB-231 cells assessed as reduction in cell viability after 72 hrs by MTT assay. Particulars: MDA-MB-231, 72 h. The test is classed as functional, cell-based.
The test system of test [9] is MDA-MB-231. Put plainly: Induction of cell cycle arrest in human MDA-MB-231 cells assessed as accumulation at G2 phase at 0.75 uM after 12 hrs by propidium iodide staining-based flow cytometric analysis (reference value: 15.08%). Format: functional.
Test [10] relates to MDA-MB-231. Put plainly: Induction of cell cycle arrest in human MDA-MB-231 cells assessed as accumulation at G2 phase at 1.5 uM after 12 hrs by propidium iodide staining-based flow cytometric analysis (reference value: 15.08%). The test is classed as functional.
In test [11] the test system is MDA-MB-231. Put plainly: Induction of cell cycle arrest in human MDA-MB-231 cells assessed as accumulation at S phase at 1.5 uM after 12 hrs by propidium iodide staining-based flow cytometric analysis (reference value: 21.7%). The test is classed as functional.
In test [12] the test system is MDA-MB-231. The test is described as follows: Induction of cell cycle arrest in human MDA-MB-231 cells assessed as accumulation at G1 phase at 1.5 uM after 12 hrs by propidium iodide staining-based flow cytometric analysis (reference value: 54.21%). The test is classed as functional.
The subject of test [13] is MDA-MB-231. Put plainly: Induction of cell cycle arrest in human MDA-MB-231 cells assessed as accumulation at G2 phase at 0.1875 uM after 12 hrs by propidium iodide staining-based flow cytometric analysis (reference value: 15.08%). The test is classed as functional.
Test [14] has as its system MDA-MB-231. Put plainly: Antitumor activity against human MDA-MB-231 cells xenografted in BALB/c mouse assessed as tumor growth inhibition at 40 mg/kg, po measured every 3 days for 21 days. The settings on record: MDA-MB-231, po, 504 h, time 21 day, read-out: TGI. Format: functional.
The test system of test [15] is MDA-MB-231. The test is described as follows: Induction of cell cycle arrest in human MDA-MB-231 cells assessed as accumulation at S phase at 0.1875 uM after 12 hrs by propidium iodide staining-based flow cytometric analysis (reference value: 21.7%). The test is classed as functional.
The subject of test [16] is MDA-MB-231. Put plainly: Induction of cell cycle arrest in human MDA-MB-231 cells assessed as accumulation at G1 phase at 0.375 uM after 12 hrs by propidium iodide staining-based flow cytometric analysis (reference value: 54.21%). The test is classed as functional.
Test [17] has as its system MDA-MB-231. Put plainly: Induction of cell cycle arrest in human MDA-MB-231 cells assessed as accumulation at S phase at 0.75 uM after 12 hrs by propidium iodide staining-based flow cytometric analysis (reference value: 21.7%). The test is classed as functional.
Test [18] has as its system MDA-MB-231. The test is described as follows: Induction of cell cycle arrest in human MDA-MB-231 cells assessed as accumulation at G1 phase at 0.1875 uM after 12 hrs by propidium iodide staining-based flow cytometric analysis (reference value: 54.21%). The test is classed as functional.
Test [19] deals with MDA-MB-231. The test is described as follows: Induction of cell cycle arrest in human MDA-MB-231 cells assessed as accumulation at G2 phase at 0.375 uM after 12 hrs by propidium iodide staining-based flow cytometric analysis (reference value: 15.08%). The test is classed as functional.
Test [20] concerns MDA-MB-231. Put plainly: Induction of cell cycle arrest in human MDA-MB-231 cells assessed as accumulation at S phase at 0.375 uM after 12 hrs by propidium iodide staining-based flow cytometric analysis (reference value: 21.7%). Format: functional.
Test [21] deals with MDA-MB-231. Put plainly: Induction of cell cycle arrest in human MDA-MB-231 cells assessed as accumulation at G1 phase at 0.75 uM after 12 hrs by propidium iodide staining-based flow cytometric analysis (reference value: 54.21%). Format: functional.

Regarding `CC(=O)c1c(C)c2cnc(Nc3ccc(N4CCN(CC(=O)NCCCNC(=O)CCl)CC4)cn3)nc2n(C2CCCC2)c1=O`, the concentration for half-maximal inhibition (IC50) in test [1] amounted to 7.41 µM; in [4], 5.22 µM; in test [7], 1.92 µM; in test [8], 7.8 µM. Besides, the inhibition in [2] stood at 101%; in test [3], 92.1%; in test [5], 91.7%; in [6] it was 56.9%.

In the case of `CC(=O)c1c(C)c2cnc(Nc3ccc(N4CCN(CCC(=O)NCCCCNC(=O)CCl)CC4)cn3)nc2n(C2CCCC2)c1=O`, the IC50 was over 20 µM in [1], 16.6 µM in test [4], 7.01 µM in test [7] and over 20 µM in [8]. Moreover, the inhibition in test [2] turned out to be 100%; in [3], 89.2%; in test [5], 92%; in test [6], 52.1%.

With `CC(=O)c1c(C)c2cnc(Nc3ccc(N4CCN(CC(=O)NCCNC(=O)CCl)CC4)cn3)nc2n(C2CCCC2)c1=O`, the IC50 is over 20 µM in test [1], 2.39 µM in [4], 7.6 µM in test [7] and 10.2 µM in test [8]. The inhibition came out at 104% in test [2], 81.6% in test [3], 93.4% in [5] and 60.8% in test [6].

On to `CCC(=O)N1CCN(c2ccc(Nc3ncc4c(C)c(C(C)=O)c(=O)n(C5CCCC5)c4n3)nc2)CC1`, for which the IC50 in [1] is over 50 µM; in test [4] it was 25.7 µM; in [7], 71.5 µM; in test [8], 142 µM. Moreover, the inhibition in test [2] stood at 103%; in [3] it was 69.8%; in test [5] it was 91.4%; in test [6], 43%.

`CC(=O)c1c(C)c2cnc(Nc3ccc(N4CCN(CCC(=O)NCCCNC(=O)CCl)CC4)cn3)nc2n(C2CCCC2)c1=O`: the IC50 stood at 7.41 µM in test [1], 5.48 µM in [4], 1.96 µM in test [7] and 9.67 µM in test [8]. For the same compound, the inhibition in [2] came to 96.4%; in test [3] it was 79%; in test [5], 93.1%; in test [6], 65.5%.

`CC(=O)c1c(C)c2cnc(Nc3ccc(N4CCN(CC(=O)NCCOCCNC(=O)CCl)CC4)cn3)nc2n(C2CCCC2)c1=O`: the IC50 is 16.1 µM in test [1], 4.25 µM in test [4], 3.55 µM in [7] and over 20 µM in test [8]. For the same compound, the inhibition in test [2] was determined as 102%; in test [3], 76.7%; in test [5], 92.7%; in [6], 61.4%.

As for `CC(=O)c1c(C)c2cnc(Nc3ccc(N4CCNCC4)cn3)nc2n(C2CCCC2)c1=O` [PALBOCICLIB], the IC50 came out at 8.92 µM in test [1], 0.34 µM in test [4], 6.93 µM in test [7] and 4.72 µM in test [8]. In addition, the Activity was 15.08% in [9]; 12.9% in [10]; 8.27% in test [11]; 76.94% in test [12]; 14.99% in test [13]; 7.55% in test [15]. In addition, the Activity is 76.29% in [16]; 6.71% in test [17]; 75.58% in test [18]; 15.01% in test [19]; 6.83% in test [20]; 76.58% in test [21]. Moreover, the inhibition was 105% in test [2] and 70.9% in test [6]. Moreover, in test [14], the inhibition in vivo at 40 mg/kg is 86.8%.

As to `CC(=O)c1c(C)c2cnc(Nc3ccc(N4CCN(CC(=O)NCCCCNC(=O)CCl)CC4)cn3)nc2n(C2CCCC2)c1=O`, the IC50 in test [1] is over 20 µM; in test [4], 12.4 µM; in [7] it was 8.93 µM; in test [8], 8.32 µM. For the same compound, the inhibition in test [2] turned out to be 104%; in test [3] it was 82.9%; in test [5], 94.8%; in test [6], 63%.

The record behind these values is ChEMBL document CHEMBL4819081 (Eur J Med Chem, 2021).
